Reference: ChEMBL document CHEMBL5257048, “Embellicines C-E: Macrocyclic Alkaloids with a Cyclopenta[b]fluorene Ring System from the Fungus Sarocladium sp” (J Nat Prod, 2023)

Experiments:
Type in all cases: functional, cell-based
MDA-MB-231 = assay: Cytotoxicity against human MDA-MB-231 cells assessed as inhibition of cell growth incubated for 72 hrs by MTT assay; conditions: MDA-MB-231, 72 h
OVCAR-3 = assay: Cytotoxicity against human OVCAR-3 cells assessed as inhibition of cell growth incubated for 72 hrs by MTT assay; conditions: OVCAR-3, 72 h
MDA-MB-435 = assay: Cytotoxicity against human MDA-MB-435 cells assessed as inhibition of cell growth incubated for 72 hrs by MTT assay; conditions: MDA-MB-435, 72 h

Row | Structure (SMILES) | IC50 (MDA-MB-231) | IC50 (OVCAR-3) | IC50 (MDA-MB-435)
1 | CC1=C[C@]2(C)C(=C(C)[C@@H]3[C@@H]4C[C@H](C)C[C@H](C)[C@H]4[C@H]4Oc5ccc(cc5)C[C@@]5(O)C=C(C(=O)N5)C(=O)[C@H]2[C@@H]43)[C@@H]1C | 0.4 µM | 1.6 µM | 1.5 µM
2 | CO[C@@H]1/C2=C(\O)[C@H]3[C@H]4[C@H](Oc5ccc(cc5)C[C@]1(O)NC2=O)[C@H]1[C@@H](C[C@H](C)C[C@@H]1C)[C@H]4C(C)=C1[C@H](C)C(C)=C[C@]13C | 0.4 µM | 1 µM | 1.8 µM
3 | CC1=C[C@]2(C)C(=C(C)[C@@H]3[C@@H]4C[C@H](C)C[C@H](C)[C@H]4[C@H]4Oc5ccc(cc5)CC(=O)[C@@H]5O[C@@]5(C(N)=O)C(=O)[C@H]2[C@@H]43)[C@@H]1C | 3.2 µM | 24 µM | 18 µM
4 | CC1=C[C@]2(C)C(=C(C)[C@@H]3[C@@H]4C[C@H](C)C[C@H](C)[C@H]4[C@H]4Oc5ccc(cc5)C[C@]5(O)NC(=O)[C@]6(O[C@H]65)C(=O)[C@H]2[C@@H]43)[C@@H]1C | 4.8 µM | 21 µM | 17 µM
5 | CC(=O)O[C@]12Cc3ccc(cc3)O[C@@H]3[C@H]4[C@@H](C[C@H](C)C[C@@H]4C)[C@H]4C(C)=C5[C@H](C)C(C)=C[C@@]5(C)[C@@H](C(=O)[C@@]5(O[C@H]51)C(=O)N2)[C@@H]34 | 4.4 µM | 20 µM | 20 µM
